In US8759323B2, “Protein phosphatase inhibitor” (LSIP, LLC, priority 2008, dated 2014) one finds inhibition, Ki and IC50 data, which are given here for 8 compounds.

What all share (type): biochemical
For test [1], the target named is T1, PPM1D protein catalytic domain (positions 1 to 420), His tag fusion (Homo sapiens, UniProt O15297).
T1 construct: the catalytic domain (the positions 1 to 420) of PPM1D protein; His tag; made in house; host or cells: E. coli (pColdI vector)
T1 sequence (O15297 1-420): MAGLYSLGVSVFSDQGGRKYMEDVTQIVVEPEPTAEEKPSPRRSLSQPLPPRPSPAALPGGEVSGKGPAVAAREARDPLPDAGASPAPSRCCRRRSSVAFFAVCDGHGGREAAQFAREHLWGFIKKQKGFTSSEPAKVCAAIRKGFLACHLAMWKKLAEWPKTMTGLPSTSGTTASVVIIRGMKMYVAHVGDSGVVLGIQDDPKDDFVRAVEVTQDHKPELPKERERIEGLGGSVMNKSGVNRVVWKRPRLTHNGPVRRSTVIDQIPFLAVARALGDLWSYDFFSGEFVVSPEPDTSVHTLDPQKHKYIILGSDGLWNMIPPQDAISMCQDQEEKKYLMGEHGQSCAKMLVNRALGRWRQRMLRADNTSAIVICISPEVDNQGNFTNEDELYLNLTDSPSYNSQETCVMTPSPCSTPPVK
Briefly: PPM1D-inhibitory activity, single concentration (Test Example 1, BIOMOL GREEN free phosphate). On the set-up: dose or concentration left out as unconfirmed. The conditions noted are these: read-out: Rate of PPM1D inhibition (: %). On the procedure:
The PPM1D-inhibitory activity of the compound of the present invention (1) was measured.
Into a pColdI vector (TaKaRa Bio Inc.), cDNA encoding the catalytic domain (the positions 1 to 420) of PPM1D protein (Protein ID: O15297/cDNA ID: U70385) was introduced, and the PPM1D protein was expressed in E. coli as a His tag fusion protein. The protein of interest was purified by metal affinity chromatography with BD-TALON resin (CLONTECH), and then eluted with an elution buffer (150 mM imidazole, PBS (pH 7.5), 500 mM NaCl, 10% glycerol, 0.2% ethanol, and 1 mM 2-mercaptoethanol). The PPM1D protein thus eluted was dialyzed against a dialysis buffer (50 mM Tris-HCl (pH 7.5), 0.1 mM EGTA, and 0.02% 2-mercaptoethanol) for 16 hours, and then stored at −80° C. as a 50% glycerol stock (an enzyme concentration of 1 μM).
The enzyme that was expressed and purified by the aforementioned method was used for analysis of the inhibitory effect of the compound on PPM1D. […] A purified phospho-p53 peptide was dissolved in H2O to prepare a 400 μM original substrate solution. The test compound of Example 1 (inhibitor) was dissolved in ethanol (EtOH) to a concentration of 40 mM, and then diluted with dimethyl sulfoxide (DMSO) to adjust an original inhibitor solution with a concentration of 4 mM in advance. Other inhibitors were dissolved in dimethyl sulfoxide (DMSO) to prepare original inhibitor solutions with a concentration of 4 mM. 30 μL of a mixed solution of the inhibitor and the substrate (66.7 μM phosphorylated peptide substrate, […], 1.7% DMSO (in the case of Example 1, 1.5% DMSO and 0.2% EtOH), and 13 mM Tris-HCl (pH 8.0)) was kept warm at 30° C., to which 20 μL of a mixed solution of an enzyme and a metal ion kept at 4° C. (10 nM PPM1D, 125 mM Tris-HCl (pH 7.5), 0.25 mM EGTA, 0.05% 2-mercaptoethanol, and 75 mM MgCl2) was added. The resulting mixture was incubated at 30° C. for 10 minutes, and then the inhibitory activity on PPM1D was measured. The enzyme reaction was terminated with addition of 100 μL of a BIOMOL GREEN reagent (Biomol), and 30 minutes later, the absorbance at 620 nm was measured to detect phosphoric acid freed by PPM1D. The inhibitory effect on PPM1D was analyzed by measuring, from the absorbance measured at 620 nm, the amount of free phosphoric acid reduced due to the addition of the inhibitor with respect to the amount of free phosphoric acid in the case of addition of DMSO not including the inhibitor.

A further test concerns the target T2, PPM1D (Homo sapiens, UniProt O15297).
T2 construct: the catalytic domain (the positions 1 to 420) of PPM1D protein; His tag; made in house; host or cells: E. coli (pColdI vector)
T2 sequence (O15297 1-420): T1 sequence (O15297 1-420)
Kind of test: PPM1D IC50, inhibition constant (Ki) and selectivity (Test Example 2). The conditions noted are these: for Ki: PPM1D, phospho-p53 (Ser 15) peptide analog substrate 5-40 μM; for IC50: inhibitor 0-40 μM, measured three times. On the procedure:
The inhibitory activity on PPM1A, PP2A, and PPM1D at each final concentration of the inhibitor (0, 0.1, 0.2, 0.4, 1, 2, 4, 10, or 40 μM) was measured three times with respect to each concentration, and the concentration of the inhibitor required for 50% inhibition of the enzyme activity (IC50) was determined.
The original inhibitor solution was diluted with a solvent (DMSO, (for the test compound of Example 1, 90% DMSO and 10% EtOH)) to prepare each concentration of an inhibitor solution.
Other conditions for measurement of the enzyme activity are the same as those in Test Example 1.
The enzyme selectivity of the inhibitor was analyzed by comparing the IC50 values of the inhibitor on PPM1D, PPM1A, and PP2A.
Also, the inhibition constant of the inhibitor (Ki) and the inhibition pattern were measured as follows.
As a substrate, a phospho-p53 (Ser 15) peptide analog (Ac-Val-Glu-Pro-Pro-Leu-Ser(P)-[…]NH2: Ser(P) indicates phosphorylated Ser) was used. 30 μL of a mixed solution of the inhibitor and the substrate (each concentration of the phosphorylated peptide substrate, each concentration of the inhibitor, 1.7% DMSO (in the case of Example 1, 1.5% DMSO and 0.2% EtOH), and 13 mM Tris-HCl (pH 8.0)) was kept warm at 30° C., to which 20 μL of a mixed solution of an enzyme and a metal ion kept at 4° C. (10 nM PPM1D, 125 mM Tris-HCl (pH 7.5), 0.25 mM EGTA, 0.05% 2-mercaptoethanol, and 75 mM MgCl2) was added. The resulting mixture was incubated at 30° C. for 10 minutes, and then the inhibitory activity on PPM1D was measured.
The activity on PPM1D was measured at each concentration of the phosphorylated peptide substrate (5, 10, 20, and 40 μM), and at each final concentration of the inhibitor (0, 0.3, 0.4, and 0.6 μM (the compound of Example 1 [Compound 1]) or 0, 0.4, and 1.2 μM (the compound of Example 5 [Compound 2]). The enzyme reaction was terminated with addition of 50 μL of a BIOMOL GREEN reagent (Biomol) to a reaction solution, and 30 minutes later, the absorbance at 620 nm was measured to detect phosphoric acid freed by PPM1D.
Based on the results thus obtained, Ki (μM) was calculated.

The target of test [2] is T3, full length PPM1A (382 residues) (Homo sapiens, UniProt P35813).
T3 construct: cDNA encoding full length PPM1A (382 residues); His tag (inferred: same pColdI vector, purified like His-PPM1D); made in house; host or cells: E. coli (pColdI vector)
T3 sequence (P35813 1-382): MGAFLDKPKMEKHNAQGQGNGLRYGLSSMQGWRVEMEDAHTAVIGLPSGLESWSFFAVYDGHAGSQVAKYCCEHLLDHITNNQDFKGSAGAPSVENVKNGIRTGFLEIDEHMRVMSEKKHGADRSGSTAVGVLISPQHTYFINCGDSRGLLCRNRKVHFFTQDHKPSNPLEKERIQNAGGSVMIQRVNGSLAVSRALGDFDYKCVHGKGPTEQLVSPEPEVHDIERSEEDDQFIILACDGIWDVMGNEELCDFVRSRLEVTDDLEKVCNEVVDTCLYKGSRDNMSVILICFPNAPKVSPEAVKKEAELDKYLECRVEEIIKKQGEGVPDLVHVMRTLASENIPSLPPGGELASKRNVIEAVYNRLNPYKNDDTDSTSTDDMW
Briefly: PPM1A inhibitory activity (Test Example 2). The conditions noted are these: 16 nM PPM1A, phospho-p38 peptide analog substrate, MnCl2. On the procedure:
In order to analyze the enzyme selectivity of the inhibitor, the inhibitory effect on PPM1A, which belongs to the PPM1 family as PPM1D does, was analyzed and compared with the inhibitory effect on PPM1D. Into a pColdI vector, cDNA encoding full length PPM1A (382 residues) (Protein ID: P35813/cDNA ID: S87759) was introduced, and the PPM1A was expressed in E. coli and then purified similarly to PPM1D. The inhibitory activity on 16 nM purified PPM1A was measured. As a substrate of PPM1A, a phospho-p38 peptide analog (Ac-Asp-Asp-Glu-Nle-Thr(P)-Gly-Tyr(P)-Val-Ala-Thr-Arg-NH2: Thr(P), Tyr(P), and Nle indicate phosphorylated Thr, phosphorylated Tyr, and norleucine, respectively) was used.
30 μL of a mixed solution of the inhibitor and the substrate (66.7 μM phosphorylated peptide substrate, each concentration of the inhibitor, 1.7% DMSO (for the test compound of Example 1, 1.5% DMSO and 0.2% EtOH), and 13 mM Tris-HCl (pH 8.0)) was kept warm at 30° C., to which 20 μL of a mixed solution of an enzyme and a metal ion kept at 4° C. (40 nM PPM1A, 125 mM Tris-HCl (pH 7.5), 0.25 mM EGTA, 0.05% 2-mercaptoethanol, and 25 mM MnCl2) was added. The resulting mixture was incubated at 30° C. for 10 minutes, and then the inhibitory activity on PPM1A was measured. […]

The next test deals with T4, PP2A (Homo sapiens, UniProt P67775).
T4 construct: purchased Promega K.K
Kind of test: PP2A inhibitory activity (Test Example 2). The conditions noted are these: with addition of 40 μM inhibitor. On the procedure: Also, in order to analyze the enzyme selectivity of the inhibitor within the Ser/Thr phosphatase family, the inhibitory effect on PP2A (Protein ID: P67775/cDNA ID: X12649), which belongs to the PPP family, was analyzed. PP2A was purchased from Promega K.K. As a substrate of PP2A, a phospho-p38 peptide analog (Ac-Thr-Asp-Asp-Glu-Met-Thr(P)-Gly-Tyr-Val-Ala-Thr-NH2: Thr(P) indicates phosphorylated Thr) was used. 30 μL of a mixed solution of the inhibitor and the substrate (333.3 μM phosphorylated peptide substrate, each concentration of the inhibitor, 1.7% DMSO (in the case of Example 1, 1.5% DMSO and 0.2% EtOH), and 13 mM Tris-HCl (pH 8.0)) was kept warm at 30° C., to which 20 μL of a mixed solution of an enzyme and a metal ion kept at 4° C. (25 mU PP2A, 125 mM Tris-HCl (pH 7.5), 0.25 mM EGTA, 0.05% 2-mercaptoethanol, and 75 mM MgCl2) was added. The resulting mixture was incubated at 30° C. for 10 minutes, and then the inhibitory activity on PP2A was measured.
The inhibitory activity on PPM1A, PP2A, and PPM1D at each final concentration of the inhibitor (0, 0.1, 0.2, 0.4, 1, 2, 4, 10, or 40 μM) was measured three times with respect to each concentration, and the concentration of the inhibitor required for 50% inhibition of the enzyme activity (IC50) was determined. […]

The mark [3] stands for this setting: phospho-p53 (Ser 15) peptide substrate, 30° C., 10 minutes, read-out: Rate of PPM1D inhibition (%).

Like-named read-outs stand apart in the source and are kept apart here.

T4 sequence (P67775 whole entry): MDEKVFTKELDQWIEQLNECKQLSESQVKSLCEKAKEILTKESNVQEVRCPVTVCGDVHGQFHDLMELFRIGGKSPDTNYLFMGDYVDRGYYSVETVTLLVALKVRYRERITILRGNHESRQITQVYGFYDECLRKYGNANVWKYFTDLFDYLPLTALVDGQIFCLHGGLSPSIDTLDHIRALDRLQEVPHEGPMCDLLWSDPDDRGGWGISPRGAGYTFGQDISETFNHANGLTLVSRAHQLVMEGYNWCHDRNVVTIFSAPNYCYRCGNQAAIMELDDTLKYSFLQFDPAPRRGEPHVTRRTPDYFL
T4 sequence (P30153 2-589 partner limits assumed): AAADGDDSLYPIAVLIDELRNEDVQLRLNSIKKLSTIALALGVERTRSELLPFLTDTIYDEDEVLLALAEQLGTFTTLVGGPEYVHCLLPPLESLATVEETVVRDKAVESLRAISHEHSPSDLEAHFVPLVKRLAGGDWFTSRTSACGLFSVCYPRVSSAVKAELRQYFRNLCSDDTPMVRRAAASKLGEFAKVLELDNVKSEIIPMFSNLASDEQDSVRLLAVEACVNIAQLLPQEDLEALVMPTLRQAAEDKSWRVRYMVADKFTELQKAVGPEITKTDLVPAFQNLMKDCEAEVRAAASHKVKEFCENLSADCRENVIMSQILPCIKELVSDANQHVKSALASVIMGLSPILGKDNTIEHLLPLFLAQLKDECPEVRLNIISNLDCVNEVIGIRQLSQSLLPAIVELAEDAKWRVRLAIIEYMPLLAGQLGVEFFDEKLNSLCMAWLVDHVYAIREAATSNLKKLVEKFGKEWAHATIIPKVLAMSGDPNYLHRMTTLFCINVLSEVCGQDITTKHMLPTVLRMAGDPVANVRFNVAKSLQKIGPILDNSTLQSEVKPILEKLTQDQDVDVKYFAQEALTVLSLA

`COC(=O)[C@]1(C)CC(=O)C[C@]2(C)[C@@H]3C[C@@H](C)C[C@@H](OC(C)=O)[C@H]3CC(=O)[C@H]21` [Comparative Example 2, reference compound]: the inhibition in test [1] (setting [3]) worked out at 0%.

As for `CCOC(=O)/C=C/C12CC[C@](C)([C@@H]1CO)C2(C)C` [Comparative Example 3, reference compound], the inhibition in test [1] (setting [3]) came out at 0%.

With `C=C1C2(/C=C/CO)CC[C@@]1(C)C2(C)C` [Comparative Example 4, reference compound], the inhibition in test [1] (setting [3]) came out at 0%.

Turning to `CC[Si](CC)(CC)O[C@@H]1C[C@H](C)C[C@@H]2[C@@H]1C[C@H](O[Si](C)(C)C(C)(C)C)[C@@H]1[C@](C)(CO)C[C@H](O)C[C@@]21C` [Example 1], the inhibition in test [1] (setting [3]) was found to be 97.1 ± 2.49%. On PPM1D, this compound gave a Ki of 0.59 ± 0.05 µM and a 50% inhibitory concentration (IC50) of 0.43 ± 0.04 µM. In test [2], this compound registered a half-maximal inhibitory concentration (IC50) of 21 ± 1.7 µM. The same compound had an inhibition at 40 µM at PP2A of 11%.

Take `C[C@H]1C[C@@H](O)[C@H]2C[C@H](O[Si](C)(C)C(C)(C)C)[C@@H]3[C@](C)(CO)C[C@H](O)C[C@@]3(C)[C@@H]2C1` [Example 4]: in test [1], the inhibition stood at 25.1%.

In the case of `CCOC(=O)C=CC12CCC(C)(C1CO[Si](C(C)C)(C(C)C)C(C)C)C2(C)C` (stereo not shown) [Example 5], the inhibition in test [1] (setting [3]) came to 92.7 ± 1.4%. Moreover, on PPM1D, the affinity corresponds to a Ki of 2.6 ± 0.1 µM and the 50% inhibitory concentration (IC50) came to 0.93 ± 0.04 µM. In test [2], this compound gave a 50% inhibitory concentration (IC50) of 28 ± 4.2 µM. For the same compound, on PP2A, 40 µM produced 14% inhibition.

Turning to `CC(C)[Si](OCCCC#CCO)(C(C)C)C(C)C` [Example 10], the inhibition in test [1] worked out at 35.4 ± 2.18%.

In the case of `CSC(C)(CO[Si](C(C)C)(C(C)C)C(C)C)S(=O)(=O)c1ccc(C)cc1` (stereo not shown) [Example 11], in test [1], the inhibition came to 33.7 ± 4.78%.
